Measured values from ChEMBL document CHEMBL1201862, “PubChem BioAssay data set” (2004).
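Five compound concentrations were applied to cells in 96-well plates for 48 hours; endpoints were derived by simple linear interpolation of the resulting dose-response curve. GI50 = concentration required for 50% inhibition of growth.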 The source made the active and inactive calls. No stated cut-off is given here; in the data, active = GI50 up to about 1.1 µM and inactive = higher.

Legend:
Experiment in all cases: NCI tumour cell line growth inhibition, 48 h
U-251 = tested on: U-251
NCI-H460 = tested on: NCI-H460
SF-295 = tested on: SF-295
UACC-257 = tested on: UACC-257
SK-OV-3 = tested on: SK-OV-3
SK-MEL-28 = tested on: SK-MEL-28
M19-MEL = tested on: M19-MEL
SF-268 = tested on: SF-268
NCI-H23 = tested on: NCI-H23
KM-20L2 = tested on: KM-20L2
SNB-19 = tested on: SNB-19
DMS-114 = tested on: DMS-114
RXF 393 = tested on: RXF 393
SNB-75 = tested on: SNB-75
CCRF-CEM = tested on: CCRF-CEM
Malme-3M = tested on: Malme-3M
M14 = tested on: M14
HL-60 = tested on: HL-60
HT-29 = tested on: HT-29
OVCAR-4 = tested on: OVCAR-4
UO-31 = tested on: UO-31
SNB-78 = tested on: SNB-78
SK-MEL-2 = tested on: SK-MEL-2
OVCAR-3 = tested on: OVCAR-3
A498 = tested on: A498
RPMI-8226 = tested on: RPMI-8226
IGROV-1 = tested on: IGROV-1
HOP-62 = tested on: HOP-62
LXFL 529 = tested on: LXFL 529
COLO 205 = tested on: COLO 205
HOP-92 = tested on: HOP-92
KM12 = tested on: KM12
SF-539 = tested on: SF-539
HCT-116 = tested on: HCT-116
ACHN = tested on: ACHN
UACC-62 = tested on: UACC-62
OVCAR-5 = tested on: OVCAR-5
786-0 = tested on: 786-0
HCT-15 = tested on: HCT-15
CAKI-1 = tested on: CAKI-1
DMS-273 = tested on: DMS-273
EKVX = tested on: EKVX
SR = tested on: SR
SN12C = tested on: SN12C
DLD-1 = tested on: DLD-1
K562 = tested on: K562
HCC 2998 = tested on: HCC 2998
A549 = tested on: A549
MOLT-4 = tested on: MOLT-4
TK-10 = tested on: TK-10
OVCAR-8 = tested on: OVCAR-8
LOX IMVI = tested on: LOX IMVI
SW-620 = tested on: SW-620
NCI-H226 = tested on: NCI-H226
SK-MEL-5 = tested on: SK-MEL-5
HOP-18 = tested on: HOP-18
NCI-H522 = tested on: NCI-H522

`CCCCOP(=O)(OCCCC)/C(C#N)=C/c1ccco1` was tested, and the GI50 (U-251) was > 100 µM (inactive), the GI50 (NCI-H460) was > 100 µM (inactive) and the GI50 (SF-295) was 51.3 µM (inactive). For the same molecule, the GI50 (UACC-257) was 40.1 µM (inactive), the GI50 (SK-OV-3) was > 100 µM (inactive) and the GI50 (SK-MEL-28) was > 100 µM (inactive). For the same molecule, the GI50 (M19-MEL) was > 100 µM (inactive), the GI50 (SF-268) was 45.2 µM (inactive) and the GI50 (NCI-H23) was > 100 µM (inactive). For the same molecule, the GI50 (KM-20L2) was > 100 µM (inactive), the GI50 (SNB-19) was 94.6 µM (inactive) and the GI50 (DMS-114) was 64.9 µM (inactive). For the same molecule, the GI50 (RXF 393) was 82.8 µM (inactive), the GI50 (SNB-75) was 27.2 µM (inactive) and the GI50 (CCRF-CEM) was 12.4 µM (inactive). The GI50 (Malme-3M) was 94.2 µM (inactive), the GI50 (M14) was > 100 µM (inactive) and the GI50 (HL-60) was 22.8 µM (inactive). For the same molecule, the GI50 (HT-29) was > 100 µM (inactive), the GI50 (OVCAR-4) was 91.6 µM (inactive) and the GI50 (UO-31) was 25.8 µM (inactive). For the same molecule, the GI50 (SNB-78) was 43.9 µM (inactive), the GI50 (SK-MEL-2) was > 100 µM (inactive) and the GI50 (OVCAR-3) was 34.7 µM (inactive). For the same molecule, the GI50 (A498) was 77.8 µM (inactive), the GI50 (RPMI-8226) was 45.2 µM (inactive) and the GI50 (IGROV-1) was > 100 µM (inactive). The GI50 (HOP-62) was > 100 µM (inactive), the GI50 (LXFL 529) was > 100 µM (inactive) and the GI50 (COLO 205) was > 100 µM (inactive). The GI50 (HOP-92) was 45.3 µM (inactive), the GI50 (KM12) was 52.6 µM (inactive) and the GI50 (SF-539) was > 100 µM (inactive). For the same molecule, the GI50 (HCT-116) was > 100 µM (inactive), the GI50 (ACHN) was 95.7 µM (inactive) and the GI50 (UACC-62) was > 100 µM (inactive). The GI50 (OVCAR-5) was > 100 µM (inactive).
With `O=C(O)CCSC(=O)Nc1cccc([N+](=O)[O-])c1` the GI50 (U-251) was > 100 µM (inactive), the GI50 (NCI-H460) was > 100 µM (inactive) and the GI50 (SF-295) was > 100 µM (inactive). For the same molecule, the GI50 (UACC-257) was > 100 µM (inactive), the GI50 (SK-MEL-28) was > 100 µM (inactive) and the GI50 (SF-268) was 17 µM (inactive). For the same molecule, the GI50 (NCI-H23) was > 100 µM (inactive), the GI50 (786-0) was > 100 µM (inactive) and the GI50 (SNB-19) was > 100 µM (inactive). For the same molecule, the GI50 (DMS-114) was > 100 µM (inactive), the GI50 (HCT-15) was 44.2 µM and the GI50 (RXF 393) was > 100 µM (inactive). For the same molecule, the GI50 (CAKI-1) was 71.1 µM (inactive), the GI50 (SNB-75) was > 100 µM (inactive) and the GI50 (CCRF-CEM) was > 100 µM (inactive). For the same molecule, the GI50 (M14) was > 100 µM (inactive), the GI50 (DMS-273) was > 100 µM (inactive) and the GI50 (EKVX) was > 100 µM (inactive). The GI50 (HL-60) was > 100 µM (inactive), the GI50 (SR) was > 100 µM (inactive) and the GI50 (HT-29) was 87.1 µM (inactive). For the same molecule, the GI50 (SN12C) was 94.6 µM (inactive), the GI50 (OVCAR-4) was 60.8 µM (inactive) and the GI50 (DLD-1) was 72.1 µM (inactive). For the same molecule, the GI50 (UO-31) was 63 µM (inactive), the GI50 (K562) was > 100 µM (inactive) and the GI50 (SNB-78) was > 100 µM (inactive). The GI50 (SK-MEL-2) was > 100 µM (inactive), the GI50 (OVCAR-3) was > 100 µM (inactive) and the GI50 (A498) was > 100 µM (inactive). For the same molecule, the GI50 (RPMI-8226) was > 100 µM (inactive), the GI50 (HCC 2998) was > 100 µM (inactive) and the GI50 (IGROV-1) was 72.6 µM (inactive). The GI50 (A549) was > 100 µM (inactive), the GI50 (HOP-62) was > 100 µM (inactive) and the GI50 (LXFL 529) was > 100 µM (inactive). For the same molecule, the GI50 (MOLT-4) was 43.7 µM (inactive), the GI50 (TK-10) was > 100 µM (inactive) and the GI50 (COLO 205) was > 100 µM (inactive). For the same molecule, the GI50 (OVCAR-8) was > 100 µM (inactive), the GI50 (KM12) was > 100 µM (inactive) and the GI50 (SF-539) was > 100 µM (inactive). The GI50 (HCT-116) was > 100 µM (inactive), the GI50 (LOX IMVI) was 66.7 µM (inactive) and the GI50 (ACHN) was 52.7 µM (inactive). The GI50 (SW-620) was 92.9 µM (inactive).
`COc1ccc(/C=C/CN(C)CCc2ccccc2)cc1OC` was tested, and the GI50 (U-251) was 86.9 µM (inactive), the GI50 (SF-295) was 53.5 µM (inactive) and the GI50 (UACC-257) was 36.1 µM (inactive). For the same molecule, the GI50 (SK-MEL-28) was > 100 µM (inactive), the GI50 (M19-MEL) was > 100 µM (inactive) and the GI50 (SF-268) was > 100 µM (inactive). For the same molecule, the GI50 (NCI-H23) was > 100 µM (inactive), the GI50 (786-0) was > 100 µM (inactive) and the GI50 (KM-20L2) was 42.3 µM (inactive). The GI50 (NCI-H226) was > 100 µM (inactive), the GI50 (SNB-19) was > 100 µM (inactive) and the GI50 (DMS-114) was 77.4 µM (inactive). The GI50 (HCT-15) was over 100 µM, the GI50 (RXF 393) was 51.2 µM (inactive) and the GI50 (SNB-75) was 25.9 µM (inactive). For the same molecule, the GI50 (Malme-3M) was 62.4 µM (inactive), the GI50 (DMS-273) was > 100 µM (inactive) and the GI50 (EKVX) was > 100 µM (inactive). The GI50 (HT-29) was 33.5 µM (inactive), the GI50 (SN12C) was 66.1 µM (inactive) and the GI50 (UO-31) was 22.9 µM (inactive). The GI50 (K562) was 26.5 µM (inactive), the GI50 (SNB-78) was > 100 µM (inactive) and the GI50 (SK-MEL-2) was > 100 µM (inactive). For the same molecule, the GI50 (OVCAR-3) was 73.3 µM (inactive), the GI50 (RPMI-8226) was 59.3 µM (inactive) and the GI50 (HCC 2998) was 32.1 µM (inactive). For the same molecule, the GI50 (IGROV-1) was > 100 µM (inactive), the GI50 (A549) was > 100 µM (inactive) and the GI50 (LXFL 529) was 62.1 µM (inactive). The GI50 (MOLT-4) was 40.6 µM (inactive), the GI50 (TK-10) was 46 µM (inactive) and the GI50 (COLO 205) was 52 µM (inactive). For the same molecule, the GI50 (OVCAR-8) was > 100 µM (inactive), the GI50 (HOP-92) was 4.89 µM (inactive) and the GI50 (KM12) was > 100 µM (inactive). The GI50 (HCT-116) was 26.4 µM (inactive), the GI50 (SK-MEL-5) was 59.2 µM (inactive) and the GI50 (ACHN) was > 100 µM (inactive). The GI50 (UACC-62) was > 100 µM (inactive), the GI50 (SW-620) was 97.3 µM (inactive) and the GI50 (OVCAR-5) was 41.1 µM (inactive).
For `CC(=O)Nc1ccc(C(=O)NN2C(=O)C(Cl)C2/C=C/c2ccccc2)cc1` (stereo not drawn), the GI50 (U-251) was > 100 µM (inactive), the GI50 (NCI-H460) was > 100 µM (inactive) and the GI50 (SF-295) was > 100 µM (inactive). For the same molecule, the GI50 (UACC-257) was > 100 µM (inactive), the GI50 (SK-OV-3) was > 100 µM (inactive) and the GI50 (SK-MEL-28) was > 100 µM (inactive). For the same molecule, the GI50 (M19-MEL) was > 100 µM (inactive), the GI50 (SF-268) was > 100 µM (inactive) and the GI50 (NCI-H23) was > 100 µM (inactive). For the same molecule, the GI50 (HOP-18) was > 100 µM (inactive), the GI50 (NCI-H226) was > 100 µM (inactive) and the GI50 (SNB-19) was > 100 µM (inactive). For the same molecule, the GI50 (SNB-75) was > 100 µM (inactive), the GI50 (CCRF-CEM) was > 100 µM (inactive) and the GI50 (Malme-3M) was > 100 µM (inactive). The GI50 (HL-60) was > 100 µM (inactive), the GI50 (SR) was > 100 µM (inactive) and the GI50 (HT-29) was > 100 µM (inactive). The GI50 (DLD-1) was > 100 µM (inactive), the GI50 (UO-31) was > 100 µM (inactive) and the GI50 (K562) was > 100 µM (inactive). The GI50 (SK-MEL-2) was > 100 µM (inactive), the GI50 (OVCAR-3) was > 100 µM (inactive) and the GI50 (RPMI-8226) was > 100 µM (inactive). The GI50 (HCC 2998) was > 100 µM (inactive), the GI50 (NCI-H522) was > 100 µM (inactive) and the GI50 (IGROV-1) was > 100 µM (inactive). For the same molecule, the GI50 (A549) was > 100 µM (inactive), the GI50 (HOP-62) was > 100 µM (inactive) and the GI50 (LXFL 529) was > 100 µM (inactive). For the same molecule, the GI50 (MOLT-4) was > 100 µM (inactive), the GI50 (TK-10) was > 100 µM (inactive) and the GI50 (COLO 205) was > 100 µM (inactive). For the same molecule, the GI50 (OVCAR-8) was > 100 µM (inactive), the GI50 (HOP-92) was > 100 µM (inactive) and the GI50 (KM12) was > 100 µM (inactive). The GI50 (SF-539) was > 100 µM (inactive), the GI50 (HCT-116) was > 100 µM (inactive) and the GI50 (SK-MEL-5) was > 100 µM (inactive). The GI50 (ACHN) was > 100 µM (inactive), the GI50 (UACC-62) was > 100 µM (inactive) and the GI50 (SW-620) was > 100 µM (inactive). For the same molecule, the GI50 (OVCAR-5) was > 100 µM (inactive).
